Measurements from US4698306A, “Process for producing peroxidase” (Takara Shuzo Co., Ltd., priority 1984, dated 1987).
Read-outs that look alike come from different tables or passages of the source. Values belong to the compound of their own block, whether it stands above or below them.

Experiments:
peroxidase [1] = target: T1, peroxidase (Coprinopsis cinerea, UniProt P28314); assay: Effects of inhibitors, metal ions and metal chelating agents on peroxidase activity; type: biochemical, Coprinus macrorhizus K-1330; settings: for Relative activity: peroxidase, 1000 µM; for Relative activity / activity at 1000 µM: 1 min; for activity at 1000 µM: read-out: Relative activity
T1 sequence (P28314 21-363): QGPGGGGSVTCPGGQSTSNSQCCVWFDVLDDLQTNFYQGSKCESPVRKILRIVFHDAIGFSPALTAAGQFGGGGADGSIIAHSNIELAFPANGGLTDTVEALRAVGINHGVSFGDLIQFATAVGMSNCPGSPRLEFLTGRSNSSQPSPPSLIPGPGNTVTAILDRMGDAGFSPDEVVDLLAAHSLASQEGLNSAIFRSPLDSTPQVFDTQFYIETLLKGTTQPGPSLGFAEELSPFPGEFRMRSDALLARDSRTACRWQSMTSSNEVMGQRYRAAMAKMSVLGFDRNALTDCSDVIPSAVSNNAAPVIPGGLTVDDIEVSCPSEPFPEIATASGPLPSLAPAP

peroxidase [2] = target: T1, peroxidase; assay: Specificity for hydrogen donors prepared by combining 4-AA with various compounds; type: biochemical, Coprinus macrorhizus K-1330; settings: hydrogen donor combined with 4-AA, phenol = 100
peroxidase [3] = target: T1, peroxidase; assay: Specificity for hydrogen donors prepared by combining MBTH with dimethylaniline, diethylaniline or EHMT; type: biochemical, Coprinus macrorhizus K-1330; settings: hydrogen donor combined with MBTH; measured at 590 nm; 4-AA/phenol = 100
[4] = system: Coprinus macrorhizus K-1330 (FERM BP-648); assay: Effect of iron salts on the production of peroxidase; type: cell-based; settings: culture filtrate, 26° C., 5 to 10 days
[5] = additive 1 mM, no addition = 100

Compound: [Cl][Mn][Cl] [MnCl2]
- Relative activity (peroxidase [1]): 86%

Compound: O=C(O)CN(CCN(CC(=O)O)CC(=O)O)CC(=O)O [EDTA]
- activity at 1000 µM (peroxidase [1]): 97%

Compound: [Cl-].[Cl-].[Zn+2] [ZnCl2]
- Relative activity (peroxidase [1]): 85%

Compound: c1ccc(-c2ccccn2)nc1 [α,α'-Dipyridyl]
- activity at 1000 µM (peroxidase [1]): 103%

- activity at 1000 µM (peroxidase [1]; [5]): 88%
Compound: c1cnc2c(c1)ccc1cccnc12 [o-Phenanthroline]

- Relative activity (peroxidase [2]; measured at 550 nm): 62%
- Relative activity (peroxidase [3]): 41%
Compound: CCN(CCO)c1cccc(C)c1 [EHMT, N-ethyl-N-hydroxyethyl-m-toluidine]

Compound: O.O.O.O.O.O.O.O=S(=O)([O-])[O-].[Fe+2] [FeSO4.7H2 O]
- Peroxidase activity (maximum activity) ([4]; 0.04 % FeSO4.7H2O added to medium): 28.0 unit/ml
- Peroxidase activity (maximum activity) ([4]; 0.08 % FeSO4.7H2O added to medium): 46.4 unit/ml
- Peroxidase activity (maximum activity) ([4]; 0.12 % FeSO4.7H2O added to medium): 75.5 unit/ml
- Peroxidase activity (maximum activity) ([4]; 0.16 % FeSO4.7H2O added to medium): 80.2 unit/ml
- Peroxidase activity (maximum activity) ([4]; 0.20 % FeSO4.7H2O added to medium): 66.0 unit/ml
- Peroxidase activity (maximum activity) ([4]; 0.24 % FeSO4.7H2O added to medium): 36.8 unit/ml
- Peroxidase activity (maximum activity) ([4]; 0.32 % FeSO4.7H2O added to medium): 17.0 unit/ml

Compound: CN(C)c1ccccc1 [Dimethylaniline]
- Relative activity (peroxidase [2]; measured at 550 nm): 21%
- Relative activity (peroxidase [3]): 50%

- activity at 1000 µM (peroxidase [1]; [5]): 95%
Compound: O[C@H](CS)[C@H](O)CS (racemic) [Dithiothreitol]

Compound: O=C(O)c1cc[c]([Hg][Cl])cc1 [PCMB, p-Chloromercuribenzoic acid]
- Relative activity (peroxidase [1]): 98%

- Relative activity (peroxidase [2]; measured at 500 nm): 18%
Compound: Oc1cccc2ccccc12 [α-Naphthol]

Compound: NC(N)=S [Thiourea]
- Inhibition of the enzyme (peroxidase [1]): inhibited
- activity at 1000 µM (peroxidase [1]): 57%

Compound: Oc1ccccc1 [Phenol]
- Relative activity (peroxidase [2]; measured at 500 nm): 100%

Compound: CCN(CC)c1ccccc1 [Diethylaniline]
- Relative activity (peroxidase [2]; measured at 550 nm): 49%
- Relative activity (peroxidase [3]): 49%

Compound: Oc1c(Cl)cc(Cl)cc1Cl [2,4,6-Trichlorophenol]
- Relative activity (peroxidase [2]; measured at 520 nm): 96%

Compound: O=S(=O)([O-])[O-].[Cu+2] [CuSO4]
- Relative activity (peroxidase [1]): 105%

Compound: O=C(O)CI [Iodoacetic acid]
- activity at 1000 µM (peroxidase [1]): 100%

- Relative activity (peroxidase [2]; measured at 500 nm): 10%
Compound: Oc1cccc(O)c1 [Resorcinol]

- activity at 1000 µM (peroxidase [1]; [5]): 105%
Compound: N[C@@H](CS)C(=O)O [L-cysteine]

Compound: Oc1ccc(Cl)cc1Cl [2,4-Dichlorophenol]
- Relative activity (peroxidase [2]; measured at 520 nm): 115%

Compound: [N-]=[N+]=[N-] [Sodium azide]
- Inhibition of the enzyme (peroxidase [1]): inhibited

Compound: Oc1c(Cl)cccc1Cl [2,6-Dichlorophenol]
- Relative activity (peroxidase [2]; measured at 520 nm): 154%

Compound: [Cl][Fe]([Cl])[Cl] [FeCl3]
- Relative activity (peroxidase [1]): 107%

Compound: O=S(=O)(F)Cc1ccccc1 [PMSF, Phenylmethylsulfonyl fluoride]
- Relative activity (peroxidase [1]): 98%

Compound: Oc1ccc(Br)cc1Br [2,4-Dibromophenol]
- Relative activity (peroxidase [2]; measured at 520 nm): 47%

Compound: [Cl][Hg][Cl] [HgCl2]
- Inhibition of the enzyme (peroxidase [1]): inhibited
- Relative activity (peroxidase [1]): 6%

Compound: [F-].[Na+] [Sodium fluoride]
- Relative activity (peroxidase [1]): 103%

Compound: O=S(=O)([O-])[O-].[Ni+2] [NiSO4]
- Relative activity (peroxidase [1]): 92%

Compound: [Ba+2].[Cl-].[Cl-] [BaCl2]
- Relative activity (peroxidase [1]): 96%

Compound: Oc1ccccc1O [Pyrocatechol]
- Relative activity (peroxidase [2]; measured at 500 nm): 58%

Compound: [Cl-].[Cl-].[Co+2] [CoCl2]
- Relative activity (peroxidase [1]): 98%

Compound: Oc1ccc(O)cc1 [Hydroquinone]
- Relative activity (peroxidase [2]; measured at 500 nm): 10%

Compound: [Cl][Sn][Cl] [SnCl2]
- Relative activity (peroxidase [1]): 92%
